Measured values published in ChEMBL document CHEMBL5729330, “Galactoside inhibitor of galectins” (2022).

biological target: Galectin-3 (Homo sapiens, UniProt P17931); assay: Fluorescence Anisotropy Assay: The affinity of Example 1-71 for galectins were determined by a fluorescence anisotropy assay where the compound was used as an inhibitor of the interaction between galectin and a fluorescein tagged saccharide probe
Sequence (P17931 whole entry): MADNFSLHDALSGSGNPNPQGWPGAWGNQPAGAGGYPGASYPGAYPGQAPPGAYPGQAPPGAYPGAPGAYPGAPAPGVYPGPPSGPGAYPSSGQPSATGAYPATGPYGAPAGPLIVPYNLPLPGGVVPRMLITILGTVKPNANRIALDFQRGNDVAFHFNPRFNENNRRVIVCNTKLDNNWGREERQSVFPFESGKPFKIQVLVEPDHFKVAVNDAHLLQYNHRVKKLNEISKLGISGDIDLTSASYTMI

Kd	Structure (SMILES)
21 nM	CCOC1[C@@H](Sc2cc(Cl)cnc2C(=O)N2CCC2)OC(CO)[C@H](O)[C@@H]1n1cc(-c2cc(F)c(F)c(F)c2)nn1 (some centres undefined)
6 nM	COC1[C@@H](Sc2cc(Br)cnc2C(=O)N2CCC2)OC(CO)[C@H](O)[C@@H]1n1cc(-c2cc(F)c(F)c(F)c2)nn1 (some centres undefined)
10 nM	COC1[C@@H](Sc2cc(Cl)cnc2C(=O)N2CCC2)OC(CO)[C@H](O)[C@@H]1n1cc(-c2cc(F)c(F)c(F)c2)nn1 (some centres undefined)
17 nM	CCOC1[C@@H](Sc2cc(Cl)cnc2C(=O)N2CCC2)OC(CO)[C@H](O)[C@@H]1n1cc(-c2ccc(Cl)c(F)c2)nn1 (some centres undefined)
16 nM	COC1[C@@H](Sc2cc(Cl)cnc2C(=O)N2CCC2)OC(CO)[C@H](O)[C@@H]1n1cc(-c2cc(F)c(Cl)c(F)c2)nn1 (some centres undefined)
21 nM	COC1[C@@H](Sc2cc(Cl)cnc2C(=O)N2CCC2)OC(CO)[C@H](O)[C@@H]1n1cc(-c2ccc(Cl)c(F)c2)nn1 (some centres undefined)
7 nM	COC1[C@@H](Sc2cc(Br)cnc2C(=O)N2CCC2)OC(CO)[C@H](O)[C@@H]1n1cc(-c2ccc(Cl)c(F)c2)nn1 (some centres undefined)
11 nM	CCOC1[C@@H](Sc2cc(Cl)cnc2C(=O)N2CCC2)OC(CO)[C@H](O)[C@@H]1n1cc(-c2cc(F)c(Cl)c(F)c2)nn1 (some centres undefined)
8 nM	CCOC1[C@@H](Sc2cc(Br)cnc2C(=O)N2CCC2)OC(CO)[C@H](O)[C@@H]1n1cc(-c2ccc(Cl)c(F)c2)nn1 (some centres undefined)
